Test system: human mescenchymal stem cell (hMSCs)
Conditions: MTT
Procedure: The MTT colorimetric cell viability provides a straightforward and quantifiable method for determining cell viability in a wide variety of cell types. An MTT assay was used to determine the cytotoxicity of Mg, Sr, Cu, and/or Zn ions in human mescenchymal stem cells. In a typical assay 2.8×10^4 cells/cm^2 human mescenchymal stem cell (hMSCs) were cultured in a low glucose DMEM culture medium supplemented with 10% (v/v) fetal bovine serum (FBS, Biowest, France), antibiotics (100 U/ml of penicillin and 100 μg/ml of streptomycin), and 2 mM L-glutamine using 96-well tissue culture plates. After one day of cell culture, testing solutions with a range of concentrations (Table 1) of different potential ions were added to the wells. The MTT solution was prepared by adding thiazolyl blue tetrazolium bromide powder to the phosphate buffered saline (PBS, OXOID Limited, England) and 10 μL of 5 mg/mL MTT solution was added on the next day. 100 μL of 10% sodium dodecyl sulfate (SDS, Sigma, USA) in 0.01 M hydrochloric acid was added to each well after four hours of culturing and incubated at 37° C. in an atmosphere of 5% CO2 and 95% air overnight. Finally, the absorbance was recorded by a multimode detector at a wavelength of 570 nm with a reference wavelength of 640 nm. Cell viability was quantified from the absorbance readings.

Q: How did the “ion concentration above which significant cell death was found” value (ion tested independently) turn out when `[Cl-].[Cl-].[Zn+2]` [Zn ions, ZnCl2] was run?
A: exceeded 1 ppm

Q: For `[Cl-].[Cl-].[Sr+2]` [Sr ion, SrCl2], which “cell viability relative to control cells” value (ion concentrations of 100 to 400 ppm) is on record?
A: 115%

Q: What about the cell viability (treatment with up to 1,000 ppm) of the same compound?
A: ~100%

Q: Which results are given for `[Cl-].[Cl-].[Mg+2]` [Mg ion, MgCl2]?
A: ion concentration above which most of the cells became non-viable (ion tested independently): exceeded 1000 ppm; ion concentration above which viability began to decrease (ion tested independently): exceeded 400 ppm

Q: With `O=S(=O)([O-])[O-].[Cu+2]` [Cu ions, CuSO4] as the compound, how does the “ion concentration with loss of viability” value (ion tested independently) read?
A: ≥ 25 ppm

— patent US20200397818A1, “Multi-Mineral Supplement for Improved Bone Density” (priority 2017, published 2020)
